Source: ChEMBL document CHEMBL4414548 (J Med Chem, 2019)
The source made the active and inactive calls. The rule behind the calls is not given here.

Columns and labels:
[1] = Permeability across apical to basolateral side in human Caco2 cells; assay type: ADME, cell-based; conditions: Caco-2, read-out: permeability
[2] = target: T1, Non-receptor tyrosine-protein kinase TYK2 (Homo sapiens, UniProt P29597); assay: Inhibition of TYK2 JH2 domain in human whole blood assessed as inhibition of IFNalpha-induced STAT5 phosphorylation preincubated for 1 hr followed by IFNalpha stimulation and measured after 15 mins by fluorescence assay; assay type: tissue-based
T1 sequence (P29597 whole entry, the tested form may be a part): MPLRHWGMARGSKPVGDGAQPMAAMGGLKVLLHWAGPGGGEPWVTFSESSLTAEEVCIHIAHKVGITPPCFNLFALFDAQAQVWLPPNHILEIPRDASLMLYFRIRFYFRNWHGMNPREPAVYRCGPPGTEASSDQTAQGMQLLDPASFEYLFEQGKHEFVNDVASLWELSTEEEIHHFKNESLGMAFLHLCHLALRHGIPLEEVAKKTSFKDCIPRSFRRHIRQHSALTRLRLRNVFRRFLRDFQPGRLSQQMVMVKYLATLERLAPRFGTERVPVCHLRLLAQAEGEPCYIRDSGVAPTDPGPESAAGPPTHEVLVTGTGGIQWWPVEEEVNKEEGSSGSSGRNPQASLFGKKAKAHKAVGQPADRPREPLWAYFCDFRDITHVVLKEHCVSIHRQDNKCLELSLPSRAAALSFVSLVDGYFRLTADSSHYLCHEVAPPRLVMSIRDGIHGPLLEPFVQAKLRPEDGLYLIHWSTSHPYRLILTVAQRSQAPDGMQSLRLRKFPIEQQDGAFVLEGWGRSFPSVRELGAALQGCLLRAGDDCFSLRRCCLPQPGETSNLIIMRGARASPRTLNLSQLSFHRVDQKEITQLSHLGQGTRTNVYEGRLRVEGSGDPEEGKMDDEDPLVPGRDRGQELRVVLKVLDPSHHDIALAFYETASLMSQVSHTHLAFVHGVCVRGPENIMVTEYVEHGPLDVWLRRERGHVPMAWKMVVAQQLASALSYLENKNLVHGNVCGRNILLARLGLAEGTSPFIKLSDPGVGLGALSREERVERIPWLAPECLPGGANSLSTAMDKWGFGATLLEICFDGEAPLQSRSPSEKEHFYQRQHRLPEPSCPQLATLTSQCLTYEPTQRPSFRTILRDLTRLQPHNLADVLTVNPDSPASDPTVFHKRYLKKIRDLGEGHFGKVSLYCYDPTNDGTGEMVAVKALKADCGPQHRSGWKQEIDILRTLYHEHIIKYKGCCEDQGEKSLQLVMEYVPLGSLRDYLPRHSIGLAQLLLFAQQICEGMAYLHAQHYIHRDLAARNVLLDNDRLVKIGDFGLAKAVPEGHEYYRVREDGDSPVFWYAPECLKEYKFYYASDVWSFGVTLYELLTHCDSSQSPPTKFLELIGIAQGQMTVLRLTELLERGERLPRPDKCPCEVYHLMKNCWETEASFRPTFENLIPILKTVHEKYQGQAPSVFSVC

[3] = Efflux ratio of permeability in human Caco2; assay type: ADME, cell-based; conditions: Caco-2
JAK2/TYK2 = JAK2/TYK2 (Homo sapiens, UniProt O60674+P29597); assay: Inhibition of TYK2/JAK2 in IL23-stimulated human Kit225 cells by steady-glo luciferase assay
Sequence of JAK2/TYK2 (O60674 whole entry): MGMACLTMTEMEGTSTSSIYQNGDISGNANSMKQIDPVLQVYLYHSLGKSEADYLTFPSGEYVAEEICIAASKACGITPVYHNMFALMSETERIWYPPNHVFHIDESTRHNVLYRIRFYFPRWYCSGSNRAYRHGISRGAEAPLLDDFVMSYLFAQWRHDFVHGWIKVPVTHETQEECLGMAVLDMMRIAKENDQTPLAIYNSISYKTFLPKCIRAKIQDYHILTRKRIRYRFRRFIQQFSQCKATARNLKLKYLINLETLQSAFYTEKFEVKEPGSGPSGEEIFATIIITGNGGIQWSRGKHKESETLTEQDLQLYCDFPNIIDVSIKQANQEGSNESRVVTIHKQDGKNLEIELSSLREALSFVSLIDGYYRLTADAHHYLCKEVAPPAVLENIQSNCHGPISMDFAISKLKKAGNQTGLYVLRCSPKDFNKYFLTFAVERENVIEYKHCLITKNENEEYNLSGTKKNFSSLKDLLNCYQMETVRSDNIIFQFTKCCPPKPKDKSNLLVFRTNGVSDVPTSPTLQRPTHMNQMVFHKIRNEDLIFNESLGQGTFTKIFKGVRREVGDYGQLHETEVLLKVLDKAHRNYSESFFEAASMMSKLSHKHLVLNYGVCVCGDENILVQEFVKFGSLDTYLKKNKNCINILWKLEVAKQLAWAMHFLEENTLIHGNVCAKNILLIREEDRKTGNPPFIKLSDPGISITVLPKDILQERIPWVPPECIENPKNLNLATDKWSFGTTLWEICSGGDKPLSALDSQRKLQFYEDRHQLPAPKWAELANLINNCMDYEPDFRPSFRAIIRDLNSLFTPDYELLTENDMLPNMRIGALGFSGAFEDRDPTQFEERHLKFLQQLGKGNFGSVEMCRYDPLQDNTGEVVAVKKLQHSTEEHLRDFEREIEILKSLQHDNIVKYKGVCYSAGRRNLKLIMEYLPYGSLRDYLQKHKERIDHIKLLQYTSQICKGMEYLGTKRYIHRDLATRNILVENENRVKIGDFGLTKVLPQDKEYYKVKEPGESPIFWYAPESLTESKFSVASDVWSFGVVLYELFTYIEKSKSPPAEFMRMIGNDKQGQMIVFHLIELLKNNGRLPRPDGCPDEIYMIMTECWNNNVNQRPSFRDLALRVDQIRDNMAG
Sequence of JAK2/TYK2 (P29597 whole entry): as the sequence (P29597 whole entry, the tested form may be a part) above

[4] = target: T2, Voltage-gated inwardly rectifying potassium channel KCNH2 (Homo sapiens, UniProt Q12809); assay: Inhibition of human ERG by fluorescence polarization assay
T2 sequence (Q12809 whole entry): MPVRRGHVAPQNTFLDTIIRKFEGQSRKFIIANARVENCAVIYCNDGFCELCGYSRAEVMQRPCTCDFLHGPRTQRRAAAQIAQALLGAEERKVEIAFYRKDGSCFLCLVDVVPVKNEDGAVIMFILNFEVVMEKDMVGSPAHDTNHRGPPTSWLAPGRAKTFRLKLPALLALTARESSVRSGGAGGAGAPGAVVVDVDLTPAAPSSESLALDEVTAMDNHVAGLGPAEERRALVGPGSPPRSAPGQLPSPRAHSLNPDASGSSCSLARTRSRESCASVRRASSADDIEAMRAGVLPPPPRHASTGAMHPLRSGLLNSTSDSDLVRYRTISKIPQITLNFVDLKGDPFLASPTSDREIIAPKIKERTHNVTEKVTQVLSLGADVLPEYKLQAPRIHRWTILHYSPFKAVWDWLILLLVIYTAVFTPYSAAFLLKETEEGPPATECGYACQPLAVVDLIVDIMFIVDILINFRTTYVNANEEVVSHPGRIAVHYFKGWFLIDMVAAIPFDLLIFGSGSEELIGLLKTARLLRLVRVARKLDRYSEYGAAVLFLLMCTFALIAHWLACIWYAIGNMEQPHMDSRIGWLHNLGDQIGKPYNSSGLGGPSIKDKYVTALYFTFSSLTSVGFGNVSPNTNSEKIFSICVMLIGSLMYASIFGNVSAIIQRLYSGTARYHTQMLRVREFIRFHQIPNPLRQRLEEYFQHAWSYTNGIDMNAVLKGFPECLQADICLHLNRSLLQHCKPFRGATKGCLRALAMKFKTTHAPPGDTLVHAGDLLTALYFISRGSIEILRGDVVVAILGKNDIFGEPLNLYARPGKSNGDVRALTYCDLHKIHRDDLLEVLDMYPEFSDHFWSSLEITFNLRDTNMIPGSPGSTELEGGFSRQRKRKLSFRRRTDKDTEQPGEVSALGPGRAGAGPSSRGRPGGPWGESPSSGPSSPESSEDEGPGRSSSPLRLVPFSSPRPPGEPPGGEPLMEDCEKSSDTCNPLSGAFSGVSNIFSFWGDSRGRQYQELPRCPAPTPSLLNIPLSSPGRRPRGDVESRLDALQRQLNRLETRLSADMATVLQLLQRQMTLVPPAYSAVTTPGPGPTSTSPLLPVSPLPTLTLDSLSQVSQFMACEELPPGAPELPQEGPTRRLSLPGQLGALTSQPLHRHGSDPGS

[5] = target: Mast/stem cell growth factor receptor Kit (Homo sapiens, UniProt P10721); assay: Inhibition of cKIT (unknown origin)
JAK1/TYK2 = JAK1/TYK2 (Homo sapiens, UniProt P23458+P29597); assay: Inhibition of TYK2/JAK1 in IFNalpha-stimulated human Kit225 cells by steady-glo luciferase assay
Sequence of JAK1/TYK2 (P23458 whole entry): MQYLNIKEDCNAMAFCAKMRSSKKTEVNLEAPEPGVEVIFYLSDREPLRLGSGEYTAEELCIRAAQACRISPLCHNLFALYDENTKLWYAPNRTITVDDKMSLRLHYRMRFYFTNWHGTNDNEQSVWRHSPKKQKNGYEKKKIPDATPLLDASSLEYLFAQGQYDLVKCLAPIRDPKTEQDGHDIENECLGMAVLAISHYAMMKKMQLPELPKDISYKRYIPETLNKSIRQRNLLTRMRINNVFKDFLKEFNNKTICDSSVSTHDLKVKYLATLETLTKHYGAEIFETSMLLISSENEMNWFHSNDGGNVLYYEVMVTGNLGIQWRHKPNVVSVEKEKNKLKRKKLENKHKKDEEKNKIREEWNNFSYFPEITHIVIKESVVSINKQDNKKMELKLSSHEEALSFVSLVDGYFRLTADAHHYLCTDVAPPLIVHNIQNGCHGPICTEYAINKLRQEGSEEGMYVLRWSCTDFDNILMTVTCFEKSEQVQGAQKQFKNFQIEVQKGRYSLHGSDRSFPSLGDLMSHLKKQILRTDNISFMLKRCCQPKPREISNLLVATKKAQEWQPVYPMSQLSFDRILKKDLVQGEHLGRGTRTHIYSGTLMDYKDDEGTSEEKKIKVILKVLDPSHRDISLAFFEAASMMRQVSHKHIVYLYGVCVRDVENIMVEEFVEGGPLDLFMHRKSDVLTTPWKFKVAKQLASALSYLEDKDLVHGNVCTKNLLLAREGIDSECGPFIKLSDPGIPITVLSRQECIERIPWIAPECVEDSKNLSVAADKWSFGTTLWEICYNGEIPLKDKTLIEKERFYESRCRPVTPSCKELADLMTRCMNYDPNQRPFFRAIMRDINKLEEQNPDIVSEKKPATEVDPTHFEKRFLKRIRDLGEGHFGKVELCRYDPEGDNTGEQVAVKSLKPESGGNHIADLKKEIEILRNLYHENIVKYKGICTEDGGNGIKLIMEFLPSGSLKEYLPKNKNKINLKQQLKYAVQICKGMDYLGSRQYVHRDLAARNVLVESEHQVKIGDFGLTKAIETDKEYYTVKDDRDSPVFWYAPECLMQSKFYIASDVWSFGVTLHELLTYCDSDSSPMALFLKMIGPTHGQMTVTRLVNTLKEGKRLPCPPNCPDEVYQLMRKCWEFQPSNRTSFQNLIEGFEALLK
Sequence of JAK1/TYK2 (P29597 whole entry): as the sequence (P29597 whole entry, the tested form may be a part) above

[6] = Half life in human liver microsomes; assay type: ADME, Microsome
[7] = target: Non-receptor tyrosine-protein kinase TYK2 (Mus musculus, UniProt Q9R117); assay: Inhibition of TYK2 JH2 domain in mouse whole blood assessed as inhibition of IFNalpha-induced STAT1 phosphorylation preincubated for 1 hr followed by IFNalpha stimulation and measured after 15 mins by fluorescence assay; assay type: tissue-based
[8] = Half life in cynomolgus monkey liver microsomes; assay type: ADME, Macaca fascicularis, Microsome
[9] = AUClast in mouse at 10 mg/kg, po after 7 hrs; assay type: ADME, organism-based; parameters: time < 7 hr, dose 10 mg/kg, route oral; conditions: in vivo
[10] = Partition coefficient, log P of compound by HPLC analysis; assay type: physicochemical; conditions: octanol/water
[11] = Half life in rat liver microsomes; assay type: ADME, Microsome
[12] = Half life in dog liver microsomes; assay type: ADME, Canis lupus familiaris, Microsome
[13] = Half life in mouse liver microsomes; assay type: ADME, Microsome
[14] = Cmax in mouse at 10 mg/kg, po after 7 hrs; assay type: ADME, organism-based; parameters: dose 10 mg/kg, route oral; conditions: in vivo
[15] = target: T1, Non-receptor tyrosine-protein kinase TYK2; assay: Inhibition of fluorescein-labeled kinase tracer binding to His-TVMV-fused TYK2 JH2 domain (575 to 869 residues) (unknown origin) measured after 90 mins by HTRF assay
Mus musculus [16] = assay: Antiinflammatory activity in B6 CB17 mouse model of CD40-induced colitis assessed as reduction in colitis severity at 250 mg/kg, po BID administered as nanosuspension; assay type: functional, organism-based; conditions: tested as the 2H-labelled form
Mus musculus [17] = assay: Antiinflammatory activity in po dosed B6 CB17 mouse model of CD40-induced colitis assessed as inhibition of body weight loss administered twice daily as nanosuspension; assay type: functional, organism-based; conditions: tested as the 2H-labelled form
Mus musculus [18] = assay: Antiinflammatory activity in B6 CB17 mouse model of CD40-induced colitis assessed as reduction in colitis damage at 250 mg/kg, po BID administered as nanosuspension; assay type: functional, organism-based; conditions: tested as the 2H-labelled form
Mus musculus [19] = assay: Inhibition of IL12/IL18-induced IFNgamma production in po dosed C57BL/6 mouse pretreated for 1 hr followed by IL12 stimulation and subsequent IL18 addition and measured after 3 hrs; assay type: functional, organism-based; conditions: tested as the 2H-labelled form
Mus musculus [20] = assay: Antiinflammatory activity in B6 CB17 mouse model of CD40-induced colitis assessed as reduction in inflammation at 250 mg/kg, po BID administered as nanosuspension; assay type: functional, organism-based; conditions: tested as the 2H-labelled form
[21] = Metabolic stability in mouse liver microsomes assessed as parent compound remaining after 10 mins; assay type: ADME, Microsome; conditions: read-out: Stability
[22] = Metabolic stability in rat liver microsomes assessed as parent compound remaining after 10 mins; assay type: ADME, Microsome; conditions: read-out: Stability
[23] = target: 3',5'-cyclic-AMP phosphodiesterase 4D (Homo sapiens, UniProt Q08499); assay: Inhibition of [3H]cAMP binding to recombinant human His-Tb fused PDE4D2 (86 to 413 residues) expressed in Escherichia coli using [3H]cAMP as substrate preincubated for 10 mins followed by [3H]cAMP addition and measured after 1 hr by scintillation proximity assay
[24] = Metabolic stability in human liver microsomes assessed as parent compound remaining after 10 mins; assay type: ADME, Microsome; conditions: read-out: Stability
JAK3/JAK1 = JAK3/JAK1 (Homo sapiens, UniProt P23458+P52333); assay: Inhibition of JAK1/JAK3 (unknown origin) in IL-2 stimulated cells by cell based assay
[25] = target: Tyrosine-protein kinase JAK1 (Homo sapiens, UniProt P23458); assay: Inhibition of JAK1 JH1 domain (unknown origin)
Sequence of Tyrosine-protein kinase JAK1 (P23458 whole entry, the tested form may be a part): as the sequence (P23458 whole entry) above

[26] = target: Tyrosine-protein kinase JAK2 (Homo sapiens, UniProt O60674); assay: Inhibition of JAK2 JH1 domain (unknown origin)
Sequence of Tyrosine-protein kinase JAK2 (O60674 whole entry, the tested form may be a part): as the sequence (O60674 whole entry) above

[27] = target: T1, Non-receptor tyrosine-protein kinase TYK2; assay: Inhibition of TYK2 JH1 domain (unknown origin)
JAK2/JAK1 = JAK2/JAK1 (Homo sapiens, UniProt O60674+P23458); assay: Inhibition of JAK1/JAK2 (unknown origin) in GM-CSF stimulated cells by cell based assay
Sequence of JAK2/JAK1 (P23458 whole entry): as the sequence (P23458 whole entry) above
Sequence of JAK2/JAK1 (O60674 whole entry): as the sequence (O60674 whole entry) above

[28] = target: T1, Non-receptor tyrosine-protein kinase TYK2; assay: Inhibition of TYK2 JH2 (unknown origin) by morrison titration assay; conditions: read-out: Ki(app)
[29] = target: T2, Voltage-gated inwardly rectifying potassium channel KCNH2; assay: Inhibition of human ERG by patch clamp assay

Compound	Papp A→B [1] [×10⁻⁶ cm/s]	IC50 [2] [nM]	efflux ratio [3]	IC50 (JAK2/TYK2) [nM]	IC50 [5] [nM]	IC50 (JAK1/TYK2) [nM]	half-life [6] [min]	IC50 [7] [nM]	half-life [8] [min]	AUC(0-t) at 7 h [9] [µM·h]	logP [10]	half-life [11] [min]	half-life [12] [min]	half-life [13] [min]	Cmax [14] [nM]	IC50 [15] [nM]	further results
CNC(=O)c1cnc(Nc2cc(C)ccn2)cc1Nc1ccccc1S(C)(=O)=O	6.5	190	9	27	> 2000	21	–	–	–	–	–	–	–	–	–	–	IC50 [4]: 16 µM
CNC(=O)c1cnc(Nc2ccc(OC)cn2)cc1Nc1ccccc1S(C)(=O)=O	2.9	–	–	–	830	–	–	–	–	–	–	–	–	–	–	–	–
CNC(=O)c1cnc(NC(=O)C2CC2)cc1Nc1ccccc1S(C)(=O)=O	1.7	310	29	430	> 2000	390	> 120	830	108	0.56	1.89	115	34	10	190	1.6	IC50 [4]: > 80 µM
CCCC(=O)Nc1cc(Nc2ccccc2S(C)(=O)=O)c(C(=O)NC)cn1	–	2500	–	2000	> 2000	2700	–	–	–	–	–	–	–	–	–	–	–
CNC(=O)c1nnc(Nc2ccccn2)cc1Nc1ccccc1S(C)(=O)=O	–	–	–	–	–	–	–	–	–	–	–	–	–	–	–	–	Activity (Mus musculus [16]): Active; inhibition (Mus musculus [17]): Dose-dependent effect; Activity (Mus musculus [18]): Active; inhibition (Mus musculus [19]): Dose-dependent effect; Activity (Mus musculus [20]): Active
CNC(=O)c1cnc(Nc2ccc(F)cn2)cc1Nc1ccccc1SC	7.9	3100	0.5	330	–	240	–	–	–	–	–	–	–	–	–	1.8	remaining at 10 min [21]: 30%; remaining at 10 min [22]: 9%; IC50 [23]: 4.4 µM; remaining at 10 min [24]: 36%
CCNC(=O)c1cnc(Nc2ccc(F)cn2)cc1Nc1ccccc1C(N)=O	–	–	–	4100	–	2500	–	–	–	–	–	–	–	–	–	13	IC50 (JAK3/JAK1): > 12.5 µM; IC50 [25]: > 2000 nM; IC50 [26]: > 2 µM; IC50 [27]: > 2 µM; IC50 (JAK2/JAK1): > 12.5 µM
CNC(=O)c1cnc(Nc2ncccc2F)cc1Nc1ccccc1C(N)=O	–	–	–	1300	–	1800	–	–	–	–	–	–	–	–	–	5.9	–
[2H]C([2H])([2H])NC(=O)c1nnc(NC(=O)C2CC2)cc1Nc1ccccc1S(C)(=O)=O	6.9	230	7.7	–	–	1.3	110	340	67	6.61	2.03	81	75	48	3420	1.3	IC50 [25]: > 2000 nM; IC50 [26]: > 50 µM; IC50 [27]: 50 µM; Ki [28]: 0.8 nM; IC50 [29]: > 30 µM
[2H]C([2H])([2H])NC(=O)c1nnc(Nc2ccc(F)cn2)cc1Nc1ccccc1S(C)(=O)=O	14.3	200	3.4	–	–	–	71	380	10	11.6	2.77	80	32	50	3890	0.58	–
CNC(=O)c1cnc(Nc2ccccn2)cc1Nc1ccccc1S(C)(=O)=O	10.2	250	9.8	71	630	57	53	340	3	4.29	2.24	25	13	14	1860	0.95	IC50 [4]: 36 µM
CNC(=O)c1cnc(Nc2ccccc2)cc1Nc1ccccc1C(N)=O	–	–	–	6900	–	7600	–	–	–	–	–	–	–	–	–	33	–
